Read-outs that look alike come from different tables or passages of the source.
What was measured:
control fibroblasts = conditions: after 100 MM TEA addition, control cells n=4
Protocol: (§1) Patch-clamp experiments were performed at room temperature (21-23° C.), following standard procedures set forth in Sakmann, B. and Neher, E. (1983) Single Channels Recordings (Plenum New York) and Kukuljan, M., et al. (1991) J. Membrane Biol. 119:187. Before recordings, […] culture medium was replaced with the following solution: 150 mM NaCl, 5 mM KCl, 2 mM CaCl2, 1 MM MgCl2, 10 mM HEPES […] pH=7.4. Pipettes were made from Blue Tip capillary tubes (I.D. 1.1-1.2 mm) using a BB-CH Mecanex puller, and then filled with a high potassium solution of 140 mM KCl, 2 mM CaCl2, 1 mM MgCl2, 10 mM HEPES (NaOH), pH=7.4. Pipette resistances were approximately 6 MΩ. Records were obtained using an Axopatch-1C amplifier (dc-10 kHz), stored on tape (Toshiba PCM-video recorder), and later transferred to a personal computer using an Axolab interface. Only recordings lasting for at least 3 minutes were considered for final analysis. The pClamp suite of programs was used for single-channel data acquisition and analysis. Amplifier, interface and software were obtained from Axon Instruments (Foster City, Calif.).

[1] = system: neuropathological non-AD fibroblasts
[2] = system: human skin fibroblasts (AD, AC, YC); conditions: for TEA Response Blind / TEA Response Non Blind: one cell line per table line
Protocol: Thirteen AD, ten AC, and six YC were used for the calcium-imaging experiments. Culture medium was replaced and washed three times with basal salt solution (“BSS”) consisting of 140 mM NaCl, 5 mM KCl2.5 mM CaCl2, 1.5 mm MgCl2, 5 mM glucose, 10 mM HEPES (NaOH), pH 7.4. Nominally Ca^2+ free BSS was prepared as BSS without adding CaCl2.
Fura-2 (acetyloxymethyl ester) (Fura-2AM) was purchased from Molecular Probes (Eugene, Oreg.) and stored as a 1 mM solution in dimethylsulfoxide. Fura-2AM was added to a final concentration of 2 µM and cells were incubated at room temperature (21°-23° C.) for 60 minutes. After incubation, cells were washed at least three times with BSS at room temperature before [Ca^2+]i determinations. Fluorescence was measured with a Hamamatsu ARGUS 50 imaging system (Hamamatsu Photonics, Japan) under the control of a personal computer (Hamamatsu imaging software package). Excitation at 340 nm and 380 nm was attenuated with neutral density filters. Fluorescent images were obtained with a 400 nm dichroic mirror and a 510 nm long-pass barrier filter. The objective lens was an X10 Nikon UV fluor. Fluorescence was measured within a uniformly illuminated fraction (¼) of the whole image.
The averaged Ca^2+ responses within 15×15 pixels in cytosolic and in nuclear cellular compartments obtained were quantified with ratios between emitted 510 nm fluorescence activated at 340 nm and fluorescence emitted at 510 nm with activation at 380 nm. These ratios were transformed to absolute values of [Ca^2+], after calibration based on the following equation:
R=Rmax+(Rmin−Rmax)/(1+([Ca^2+]i/Kd)^b).
Here R denotes fluorescence intensity illuminated by 340 nm divided by fluorescence intensity illuminated by 380 nm (F340/F380), and Rmax and Rmin are the values of R when the concentration of calcium is at a maximum and a minimum (i.e., the maximum and minimum value measurable by the machine under the measuring conditions), respectively. Kd is a dissociation constant of fura-2 for Ca^2+ and was determined as 240 nM. The value of b, which determined the degree of asymmetry, was 1.2. […] A response of 100% [Ca^+2]i elevation in at least 10% of cells in a line was, therefore, considered to be a conservative criterion for a positive response.

113 pS K^+ channel = assay: Patch-clamp, cell-free patches: channel sensitivity to blockers; type: cell-based, human; conditions: outside-out patches, n=4 YC, n=3 AC
Protocol: as §1

166 pS K^+ channel = assay: as above; type: cell-based, human; conditions: outside-out patches
Protocol: as §1

[3] = system: cultured fibroblasts (AD, controls, Es)
Protocol: Culture medium was removed and cells were washed at least three times with BSS (in mM: NaCl 140, KCl 5, CaCl2 2.5, MgCl2 1.5, HEPES 10, Glucose 5, pH=7.4). The fluorescent probe was loaded by incubating the cells in 2 μM (in BSS) fura 2-AM (Molecular Probes) for 60 min at room temperature. After loading, cells were washed thoroughly with BSS or BSS-0 Ca^2+ (in mM: NaCl 140, KCl 5, CaCl2 0.1, MgCl2 1.5, EGTA 1, HEPES 10, Glucose 5, pH=7.4). After washes, 1 ml of fresh solution was added for intracellular Ca^2+ baseline measurements. […] This solution was adjusted in order to introduce no osmolality changes. […] Bradykinin (Calbiochem) in BSS and BSS-0 Ca^2+ (1 ml) was also used at concentrations of 100 pM, 1 nm and 10 nM. Fluorescent images at 340 and 380 nm were acquired at a rate of 2.6/sec. for 200 sec, with a Hamamatsu Argus 50 system (Hamamatsu Photonics). The objective lens was a 10×Nikon fluor. Only the ¼ evenly illuminated area of the whole image was acquired. Individual ratio values were obtained off-line for all cells within the area of interest. Three to five dishes of a given cell line were used for each experimental condition. The number of cells measured per cell line was at least 50. In most cases, experiments for each cell line were repeated on at least one separate occasion (minimum one week interval).

[4] = 100 mM TEA, Age-Matched Control Fibroblasts
[5] = 100 mM TEA, Young Control Fibroblasts
[6] = Alzheimer's Patients, total 738 cells
[7] = Young Controls, total 532 cells

## CC[N+](CC)(CC)CC [TEA, tetraethylammonium]
Control fibroblasts
  depolarization of control cells: 13-20 mV
[1]; Parkinson's donor cell line
  TEA: +
[1]; Schizophrenia donors, one cell line per table line
  TEA: +
[1]; Wernicke-Kors. donors, one cell line per table line
  TEA: +
[2]; 1 mM TEA, YC fibroblasts
  [Ca^2+]i elevation in response to TEA: elevated
[2]; 10 mM TEA, AC fibroblasts
  [Ca^2+]i elevation in response to TEA: elevated
[2]; 10 mM TEA, YC fibroblasts
  [Ca^2+]i elevation in response to TEA: elevated
[2]; 100 mM TEA, AC fibroblasts
  [Ca^2+]i elevation in response to TEA: elevated
[2]; 100 mM TEA, YC and AC fibroblasts
  return of [Ca^2+]i to basal levels: 100 s
[2]; 100 mM TEA, YC fibroblasts
  [Ca^2+]i elevation in response to TEA: elevated
[2]; [4]
  TEA Response Blind: +
  TEA Response Non Blind: +
[2]; 100 mM TEA, Alzheimer's Disease Fibroblasts
  TEA Response Blind: −
[2]; 100 mM TEA, Alzheimer's Disease Fibroblasts, criterion 100% elevation in at least 10% of cells
  TEA Response Non Blind: −
[2]; [5]
  TEA Response Blind: +
  TEA Response Non Blind: +
[2]; Aged Controls, total 10 cell lines
  Number of Cell Lines, Increase in [Ca^+2]i with 100 mM TEA: 10
[2]; Aged Controls, total 417 cells
  Number of Cells, Increase in [Ca^+2]i with 100 mM TEA: 119
  Percent of cells, Increase in [Ca^+2]i with 100 mM TEA: 29%
[2]; Alzheimer's Patients, total 13 cell lines
  Number of Cell Lines, Increase in [Ca^+2]i with 100 mM TEA: 0
[2]; [6]
  Number of Cells, Increase in [Ca^+2]i with 100 mM TEA: 4
  Percent of cells, Increase in [Ca^+2]i with 100 mM TEA: 0.5%
[2]; TEA application, every control cell line except one young control
  cells with a minimum of 100% [Ca^+2]i elevation: at least 18 % of cells
[2]; TEA application, the only AD cell line with any response
  cells with 100% [Ca^+2]i elevation: 4 % of cells
[2]; Young Controls, total 6 cell lines
  Number of Cell Lines, Increase in [Ca^+2]i with 100 mM TEA: 5
[2]; [7]
  Number of Cells, Increase in [Ca^+2]i with 100 mM TEA: 145
  Percent of cells, Increase in [Ca^+2]i with 100 mM TEA: 27%
113 pS K^+ channel
  sensitivity of the 113 pS channel to TEA: sensitive
166 pS K^+ channel
  sensitivity of the 166 pS channel to TEA: only the 113 PS channel was sensitive
[3]; 100 mM TEA, 3 Es cell lines
  % of responding cells in Es cell lines: lower % of responding cells
[3]; 100 mM TEA, 11 control cell lines
  number of control cell lines with significant Ca^2+ elevations meeting CR: 11
[3]; 100 mM TEA, 14 AD cell lines
  number of AD cell lines that did not meet CR: 10
[3]; TEA-induced responses
  % of responding cells in AD cell lines compared to controls: significantly reduced
